Data on 3 compounds can be found in US7320878B2, “Protease assay for therapeutic drug monitoring” (Tibotec Pharmaceuticals, Ltd., priority 2001, dated 2008).

Data set [1] has as its system α-acid glycoprotein (AAG). The experiment in a line: Binding constant (Ka) of the drug to alpha-acid glycoprotein. On the set-up: species or system human.
In data set [2] the test system is normal human serum proteins. Particulars: 5 min, 1 μM.
Procedure: To one part of serum sample two parts of MeOH were added, mixed and centrifuged at 16,100 g for 30 min. The supernatant was recovered and can be stored for at least 2 weeks at −20° C. prior to assay. 60 μl is used for the cuvette assay or 24 μl is used for the plate reader assay. Six serial dilutions 1:2 to 1:120 of the extracts, obtained from analyte samples were prepared prior to assay. Methanol extract of normal dog serum without inhibitor was used for the dilution.
For the plate reader assay, the following conditions were used: The buffer was prepared of 50 mM Sodium acetate (NaOAc), pH 4.5, 2 mM dithiothreitol (DTT), 20 mM Sodium Chloride (NaCl), 0.01% Tween 20. The substrate was present at a final concentration of 20 μM in the above buffer. The substrate used is based on a natural substrate for HIV protease. It contains a portion (P4-P4′) of the p17-p24 gag protein. […] The enzyme, wild type HIV-1 protease, was present in the above buffer (50 mM NaOAc, pH4.5, 2 mM DTT, 200 mM NaCl), 0.01% Tween 20) at a final concentration of 4-5 nM. It should be appreciated that other forms of HIV protease can be used as well, including mutant forms of the protease.
The assay is performed at room temperature (RT). […] The reaction was started by adding 88 μl buffer containing substrate and the increase of fluorescence was monitored over time (FIG. 2). […]
For data set [3], the system named is plasma protein. Particulars: cited from earlier work.

Regarding `CC(C)(C)NC(=O)[C@@H]1CN(Cc2cccnc2)CCN1C[C@@H](O)C[C@@H](Cc1ccccc1)C(=O)N[C@H]1c2ccccc2C[C@H]1O` [IDV, indinavir], in data set [1], the “Ka for AAG binding” value is recorded as “No binding”.

As to `CC(C)CN(C[C@@H](O)[C@H](Cc1ccccc1)NC(=O)[C@H](CC(N)=O)NC(=O)c1ccc2ccccc2n1)C(=O)NC(C)(C)C` [SC-52151], in data set [1], the “Ka for AAG binding” value is 2.3 10^6 M^−1. The “Free/total drug ratio (%), percentage of HIV protease inhibitor in sample not bound to proteins” value in data set [2] is reported as 10.5%.

Regarding `CC(C)(C)NC(=O)[C@@H]1C[C@@H]2CCCC[C@@H]2CN1C[C@@H](O)[C@H](Cc1ccccc1)NC(=O)[C@H](CC(N)=O)NC(=O)c1ccc2ccccc2n1` [saquinavir], the plasma protein bound in data set [3] is 90-99%.
